The nature of data set [1]: acute oral toxicity to male rat (LD50). The conditions noted are these: in vivo. The protocol: For example, LD50 value (acute oral toxicity to male rat) of the compound No. 20 is more than 1,000 mg/kg.
In data set [2] the test system is hepatic disorder caused by carbon tetrachloride (liver injury, plasma glutamic pyruvic transaminase). Briefly: Effect of suppressing hepatic disorder caused by carbon tetrachloride. The format is in vivo, mice (dd-strain, male). Also on record: key to Liver injury index: liver injury index 0 = healthy, 2 slight, 4 evident, 6 serious injury. The conditions noted are these: 30 mg/kg oral, 6 h before CCl4 0.05 ml/kg oral, 24 h after CCl4, mean of five mice; for Liver injury index: 0 healthy, 2 slightly affected, 4 evident injury, 6 serious injury; for p-GPT (plasma glutamic pyruvic transaminase activity): Reitman-Frankel, Karmen Units, >=2,100 calculated as 2,100. The protocol: Test Example 1 Effect of suppressing hepatic disorder caused by carbon tetrachloride. Test Method […] Six hours thereafter, carbon tetrachloride was orally administered in a proportion of 0.05 ml/kg. The animals were sacrificed 24 hours after the administration of carbon tetrachloride, and the extent of liver injury was grossly examined. On the other hand, blood was collected from the animal at the time of the sacrifice, and centrifuged to obtain plasma. The plasma glutamic pyruvic transminase (GPT) activity was determined according to the method of Reitman-Frankel. The activity was expressed in terms of Karmen Units (K.U.). The conditions of the liver were expressed in terms of liver injury index as follows. […] When the GPT activity was 2,100 units or higher, […], and the activity was calculated as 2,100 units for reasons of convenience.

SMILES strings stand for the structures. Some results are limits rather than exact numbers.

One may read the LD50 as the dose expected to kill half of the subjects tested. In turn, `CCCOC(=O)C(C(=O)OCCC)=C1SC2C(S1)N(C)CCN2C` (stereo not drawn) [Compound 20] displayed an LD50 in data set [1] of more than 1000 mg/kg. Turning to `CCCCOC(=O)C(C(=O)OCC)=C1SC2C(S1)N(C)CCN2C` (stereo not drawn) [Compound 59], in data set [2], the Liver injury index is recorded as 0.5 and the “p-GPT (plasma glutamic pyruvic transaminase activity)” value (“p-GPT” for short) is 109.2 K.U.

For the compound `CCCCOC(=O)C(C(=O)OCCCC)=C1SC2C(S1)N(C)CCN2C` (stereo not drawn) [Compound 23], in data set [2], the Liver injury index amounted to 1.2 and the “p-GPT” value is listed as 10.2 K.U. As for `CCCCOC(=O)C(C(=O)OCCCC)=C1SC2C(S1)N(CC)CCN2CC` (stereo not drawn) [Compound 30], in data set [2], the Liver injury index stood at 0.8 and the “p-GPT” value is given as 22.8 K.U. As for `CCN1CCN(CC)C2(C)SC(=C(C(=O)OC(C)C)C(=O)OC(C)C)SC12` (stereo not drawn) [Compound 33], in data set [2], the Liver injury index stood at 1.2 and the “p-GPT” value is given as 925 K.U. The matching figures for `C=CCOC(=O)C(C(=O)OCC=C)=C1SC2C(S1)N(CC=C)CCN2CC=C` (stereo not drawn) [Compound 49]: 1.2 and 23.8 K.U. The matching figures for `CCCCOC(=O)C(C(=O)OC(C)C)=C1SC2C(S1)N(CC)CCN2CC` (stereo not drawn) [Compound 68]: 1.5 and 914.6 K.U. The matching figures for `C=CCN1CCN(CC=C)C2SC(=C(C(=O)OCCC)C(=O)OCCC)SC21` (stereo not drawn) [Compound 43]: 0.2 and 51 K.U. With `CC(C)OC(=O)C(C(=O)OC(C)C)=C1SC2C(S1)N(C)CCN2C` (stereo not drawn) [Compound 16, Diisopropyl(2,5-dimethyl-2,5-diaza-7,9-dithiabicyclo-[4,3,0]-nonane-8-ylidene)malonate], in data set [2], the Liver injury index is listed as 0.6 and the “p-GPT” value is 32 K.U. On the same counts, the results for `CCC(COC)OC(=O)C(C(=O)OC(CC)COC)=C1SC2C(S1)N(C)CCN2C` (stereo not drawn) [Compound 63] are 0.5 and 32.8 K.U.

Take `CCOC(=O)C(C(=O)OCC)=C1SC2NCCNC2S1` (stereo not drawn) [Compound 1]: in data set [2], the Liver injury index worked out at 2.0 and the “p-GPT” value is 225 K.U.

`Cc1ccc(C(C)OC(=O)C(C(=O)OC(C)C)=C2SC3C(S2)N(C)CCN3C)cc1` (stereo not drawn) [Compound 81]: in data set [2], the Liver injury index worked out at 1.2 and the “p-GPT” value was 120 K.U.

For `CCCOC(=O)C(C(=O)OCCC)=C1SC2C(S1)N(C(C)=O)CCN2CC` (stereo not drawn) [Compound 10], in data set [2], the Liver injury index was found to be 4.5 and the “p-GPT” value is recorded as 2,000 K.U. The matching figures for `CCCOC(=O)C(C(=O)OCCC)=C1SC2NCCNC2(C)S1.Cl` (stereo not drawn) [Compound 96, Di-n-propyl(6-methyl-2,5-diaza-7,9-dithiabicyclo-[4,3,0]-nonane-8-ylidene)malonate hydrochloride salt]: 0.1 and 28.0 K.U. Turning to `Cc1ccc(COC(=O)C(C(=O)OC(C)C)=C2SC3C(S2)N(C)CCN3C)cc1` (stereo not drawn) [Compound 74], in data set [2], the Liver injury index worked out at 0.6 and the “p-GPT” value is reported as 25 K.U. On the same counts, the results for `COCC(C)OC(=O)C(C(=O)OC(C)COC)=C1SC2C(S1)N(C)CCN2C` (stereo not drawn) [Compound 51] are 0.4 and 18.2 K.U. On the same counts, the results for `CCC(C)OC(=O)C(C(=O)OC(C)CC)=C1SC2NCCNC2S1` (stereo not drawn) [Compound 87] are 0.2 and 21 K.U. On the same counts, the results for `CCOC(=O)C(C(=O)OC(C)c1ccccc1)=C1SC2C(S1)N(C)CCN2C` (stereo not drawn) [Compound 84] are 0.8 and 37 K.U. On to `CCCOC(=O)C(C(=O)OCCC)=C1SC2C(S1)N(CC)CCN2CC` (stereo not drawn) [Compound 37], for which, in data set [2], the Liver injury index is reported as 1.4 and the “p-GPT” value is 143 K.U. On the same counts, the results for `CC(C)OC(=O)C(C(=O)OC(C)C)=C1SC2NCCNC2S1` (stereo not drawn) [Compound 2, Diisopropyl(2,5-diaza-7,9-dithiabicyclo-[4,3,0]-nonane-8-ylidene)malonate] are 0.3 and 24.4 K.U. On the same counts, the results for `CC(C)OC(=O)C(C(=O)OC(C)c1ccc(Cl)cc1Cl)=C1SC2C(S1)N(C)CCN2C` (stereo not drawn) [Compound 79] are 1.4 and 1,060 K.U. As to `CCOC(=O)C(C(=O)OC(C)c1ccc(Cl)cc1)=C1SC2C(S1)N(C)CCN2C` (stereo not drawn) [Compound 83], in data set [2], the Liver injury index came to 0.8 and the “p-GPT” value is listed as 38.6 K.U. As for `CC(C)OC(=O)C(C(=O)OC(C)C)=C1SC2C(S1)N(C)CCN2C` (stereo not drawn) [Compound 94], in data set [2], the Liver injury index is on record as 2.0 and the “p-GPT” value is reported as 1,534 K.U. Regarding `CCCOC(=O)C(C(=O)OCCC)=C1SC2NCCNC2S1` (stereo not drawn) [Compound 3], in data set [2], the Liver injury index is reported as 0.1 and the “p-GPT” value was 53.0 K.U. Regarding `CCOC(=O)C(C(=O)OC(C)C)=C1SC2C(S1)N(C)CCN2C` (stereo not drawn) [Compound 56], in data set [2], the Liver injury index was found to be 0 and the “p-GPT” value is listed as 16.8 K.U. On the same counts, the results for `CCN1CCN(CC)C2SC(=C(C(=O)OC)C(=O)OC)SC21` (stereo not drawn) [Compound 25] are 0.4 and 13.2 K.U. Take `CCOC(=O)C(C(=O)OCC(C)C)=C1SC2C(S1)N(CC)CCN2CC` (stereo not drawn) [Compound 67]: in data set [2], the Liver injury index is 2.5 and the “p-GPT” value is on record as 1,620 K.U. For the compound `CC(C)OC(=O)C(C(=O)OC(C)C)=C1SC2NCCNC2(C)S1` (stereo not drawn) [Compound 97], in data set [2], the Liver injury index is reported as 0.2 and the “p-GPT” value is 45.0 K.U. The matching figures for `CCOC(=O)C(C(=O)OCC)=C1SC2C(S1)N(C)CCN2C` (stereo not drawn) [Compound 19]: 1.6 and 99 K.U. On the same counts, the results for `CCOC(=O)C(C(=O)OC)=C1SC2C(S1)N(C)CCN2C` (stereo not drawn) [Compound 54] are 0 and 13.4 K.U. On the same counts, the results for `CC(C)OC(=O)C(C(=O)OC(C)C)=C1SC2N(C)CCN(C)C2(C)S1` (stereo not drawn) [Compound 28] are 1.5 and 547 K.U.

As to `CCN1CCN(CC)C2SC(=C(C(=O)OC(C)(C)C)C(=O)OC(C)(C)C)SC21` (stereo not drawn) [Compound 40], in data set [2], the Liver injury index is on record as 1.8 and the “p-GPT” value is recorded as 164 K.U. The matching figures for `CCOC(=O)C(C(=O)OC(C)(C)C)=C1SC2C(S1)N(CC)CCN2CC` (stereo not drawn) [Compound 72]: 0.4 and 428.6 K.U. For the compound `COc1ccc(COC(=O)C(C(=O)OC(C)C)=C2SC3C(S2)N(C)CCN3C)cc1` (stereo not drawn) [Compound 75, Isopropyl 4-methoxybenzyl(2,5-dimethyl-2,5-diaza-7,9-dithiabicycl-[4,3,0]-nonane-8-ylidene)malonate], in data set [2], the Liver injury index worked out at 0 and the “p-GPT” value is reported as 20 K.U. The matching figures for `COC(=O)C(C(=O)OC)=C1SC2C(S1)N(C)CCN2C` (stereo not drawn) [Compound 18]: 1.8 and 166 K.U.

The values are drawn from patent publication US4835153A, “Malonic acid derivatives” (Nihon Nohyaku Co., Ltd., priority 1986, dated 1989).
